From ChEMBL document CHEMBL3593184, “Synthesis of (2-amino)ethyl derivatives of quercetin 3-O-methyl ether and their antioxidant and neuroprotective effects” (Bioorg Med Chem, 2015) come the findings set out here.

Where only a bound is given, the exact number is not on record here.

The test system of data set [1] is Rattus norvegicus. The data set is described as follows: Neuroprotective activity against middle cerebral artery occlusion-induced focal cerebral ischemia in Sprague-Dawley rat assessed as reduction in edema at 10 mg/kg, iv administered 30 mins after MCA occlusion measured after 2 hrs of reperfusion by TTC staining (reference value: 13 +/- 0.7 %). The class given is functional. Also on record: scale not given: the % may be the effect or the level left.

A further data set has as its system Liver microsome. Kind of data set: Antioxidant activity in rat liver microsomes assessed as reduction in iron-ascorbic acid-induced lipid […] activity after 30 mins by TBARS assay. To be noted: 0.5 h. Type of data set: functional.
In data set [2] the test system is Rattus norvegicus. The data set is described as follows: Neuroprotective activity against middle cerebral artery occlusion-induced focal cerebral ischemia in Sprague-Dawley rat assessed as reduction in absolute infarct volume in cortex at 10 mg/kg, iv administered 30 mins after MCA occlusion measured after 2 hrs of reperfusion by TTC staining (reference value: 195.6 +/- 11.5 mm'3). Type of data set: functional.

A short description of data set [3]: Antioxidant activity assessed as DPPH radical scavenging activity after 30 min. Type of data set: physicochemical. The following applies: DPPH radical solution.
For data set [4], the system named is Rattus norvegicus. Kind of data set: Neuroprotective activity against middle cerebral artery occlusion-induced focal cerebral ischemia in Sprague-Dawley rat assessed as reduction in absolute infarct total volume at 10 mg/kg, iv administered 30 mins after MCA occlusion measured after 2 hrs of reperfusion by TTC staining (reference value: 237.4 +/- 13.1 mm'3). The class given is functional.

The nature of data set [5]: Antioxidant activity assessed as superoxide anion radical scavenging activity after 20 mins by xanthine/xanthine oxidase method. The class given is physicochemical.
Data set [6] concerns Rattus norvegicus. Kind of data set: Neuroprotective activity against middle cerebral artery occlusion-induced focal cerebral ischemia in Sprague-Dawley rat assessed as reduction in corrected total infarct volume at 10 mg/kg, iv administered 30 mins after MCA occlusion measured after 2 hrs of reperfusion by TTC staining (reference value: 163.2 +/- 9.4 mm'3). Type of data set: functional.

For data set [7], the system named is Rattus norvegicus. Kind of data set: Neuroprotective activity against middle cerebral artery occlusion-induced focal cerebral ischemia in Sprague-Dawley rat assessed as reduction in absolute infarct volume in striatum at 10 mg/kg, iv administered 30 mins after MCA occlusion measured after 2 hrs of reperfusion by TTC staining (reference value: 41.9 +/- 29 mm'3). The class given is functional.

The nature of data set [8]: Aqueous solubility of the compound at room temperature by HPLC. Type of data set: physicochemical. The following applies: water.

In the case of `COc1c(-c2ccc(O)c(O)c2)oc2cc(OCCN3CCCCC3)cc(O)c2c1=O.Cl`, the Activity is given as 6.7% in the data set with Rattus norvegicus [1]; 93.6 mm3 with Rattus norvegicus [2]; 128.9 mm3 with Rattus norvegicus [4]; 92.1 mm3 in the data set on Rattus norvegicus [6]; 30.1 mm3 in the data set on Rattus norvegicus [7]. Further, the IC50 in the data set with Liver microsome is 19.2 µM; in data set [3] it was 20.7 µM; in data set [5], 8.15 µM. Moreover, the solubility in [8] was greater than 50 mM.

In the case of `COc1c(-c2ccc(O)c(O)c2)oc2cc(OCCN3CCCC3)cc(O)c2c1=O`, the figures for the IC50 (in the data set with Liver microsome; in data set [3]; in [5]) were 21.8 µM, 18.9 µM and 11.4 µM, respectively.

On to `COc1c(-c2ccc(O)c(O)c2)oc2cc(OCCN3CCOCC3)cc(O)c2c1=O`, for which the IC50 stood at 16.2 µM in the data set on Liver microsome, 47.2 µM in [3] and 7.41 µM in [5].

For `CCN(CC)CCOc1cc(O)c2c(=O)c(OC)c(-c3ccc(O)c(O)c3)oc2c1`, the IC50 is 15.8 µM with Liver microsome, 27.4 µM in [3] and 8.14 µM in [5].

For the compound `COc1c(-c2cc(O)c(O)c(O)c2)oc2cc(OCCN3CCCCC3)cc(O)c2c1=O`, the values for the IC50 (in the data set on Liver microsome; in data set [3]; in [5]) were 10.5 µM, 26.3 µM and greater than 100 µM, respectively.

Regarding `COc1c(-c2cc(O)c(O)c(O)c2)oc2cc(OCCN3CCCC3)cc(O)c2c1=O`, the IC50 in the data set with Liver microsome was 10.1 µM; in data set [3] it was 16.8 µM; in [5], greater than 100 µM.

For the compound `COc1c(-c2cc(O)c(O)c(O)c2)oc2cc(OCCN3CCOCC3)cc(O)c2c1=O`, the half-maximal inhibitory concentration (IC50) in the data set on Liver microsome was 10.2 µM; in data set [3], 26 µM; in data set [5], greater than 100 µM.

As to `CCN(CC)CCOc1cc(O)c2c(=O)c(OC)c(-c3cc(O)c(O)c(O)c3)oc2c1.Cl`, the Activity in the data set with Rattus norvegicus [1] is reported as 9.4%; in the data set with Rattus norvegicus [2], 123.4 mm3; in the data set on Rattus norvegicus [4], 164 mm3; with Rattus norvegicus [6], 108.9 mm3; in the data set with Rattus norvegicus [7] it was 39.3 mm3. In addition, the half-maximal inhibitory concentration (IC50) in the data set with Liver microsome is 11.5 µM; in [3], 22.9 µM; in [5], greater than 100 µM. In [8], the solubility was greater than 50 mM.

For `COc1c(-c2ccc(O)c(O)c2)oc2cc(O)cc(OCCN3CCCCC3)c2c1=O`, the IC50 is 25.1 µM in the data set with Liver microsome, greater than 100 µM in data set [3] and 5.8 µM in [5].

Regarding `COc1c(-c2ccc(O)c(O)c2)oc2cc(O)cc(OCCN3CCCC3)c2c1=O`, the IC50 in the data set on Liver microsome worked out at 23.3 µM; in data set [3] it was 84 µM; in [5] it was 4.58 µM.

On to `COc1c(-c2ccc(O)c(O)c2)oc2cc(O)cc(OCCN3CCOCC3)c2c1=O`, for which the half-maximal inhibitory concentration (IC50) in the data set with Liver microsome was 37.4 µM; in data set [3] it was greater than 100 µM; in data set [5] it was 11.2 µM.

In the case of `CCN(CC)CCOc1cc(O)cc2oc(-c3ccc(O)c(O)c3)c(OC)c(=O)c12`, the half-inhibitory concentration (IC50) in the data set on Liver microsome was 23.3 µM; in data set [3], greater than 100 µM; in [5], 6.53 µM.

Consider `COc1c(-c2cc(O)c(O)c(O)c2)oc2cc(O)cc(OCCN3CCCCC3)c2c1=O`, for which the figures for the IC50 (with Liver microsome; in data set [3]; in data set [5]) were 11.9 µM, 32.4 µM and greater than 100 µM, respectively.

As for `COc1c(-c2cc(O)c(O)c(O)c2)oc2cc(O)cc(OCCN3CCCC3)c2c1=O`, the IC50 in the data set with Liver microsome is 10.9 µM; in data set [3], 27 µM; in data set [5], greater than 100 µM.

Regarding `COc1c(-c2cc(O)c(O)c(O)c2)oc2cc(O)cc(OCCN3CCOCC3)c2c1=O`, the figures for the IC50 (in the data set on Liver microsome; in [3]; in data set [5]) were 12 µM, 23.2 µM and greater than 100 µM, respectively.

For the compound `CCN(CC)CCOc1cc(O)cc2oc(-c3cc(O)c(O)c(O)c3)c(OC)c(=O)c12`, the results for the IC50 (in the data set on Liver microsome; in data set [3]; in data set [5]) were 11.2 µM, 22.1 µM and greater than 100 µM, respectively.

Consider `COc1c(-c2ccc(O)c(O)c2)oc2cc(O)cc(O)c2c1=O` [3-O-METHYLQUERCETIN], for which the Activity with Rattus norvegicus [1] stood at 5.5%; in the data set on Rattus norvegicus [2] it was 79.9 mm3; in the data set with Rattus norvegicus [4], 108.8 mm3; with Rattus norvegicus [6], 78.8 mm3; in the data set on Rattus norvegicus [7] it was 27.2 mm3. The IC50 in the data set on Liver microsome turned out to be 19 µM; in data set [3], 14.2 µM; in data set [5], 17.4 µM. The compound further registered a solubility in data set [8] greater than 50 mM.

Consider `O=C1O[C@H]([C@@H](O)CO)C(O)=C1O` [ASCORBIC ACID], for which the IC50 in data set [3] is 41 µM; in data set [5], greater than 50 µM.

In general, IC50 refers to the concentration at which inhibition is half-maximal. What is called solubility is how much of the substance goes into solution per volume.
